Test results taken from PMC8119466, “A screen of FDA-approved drugs identifies inhibitors of protein tyrosine phosphatase 4A3 (PTP4A3 or PRL-3)” (Scientific Reports, 2021).
Structures can show the parent of a compound that is named as a salt. Where two headings read alike, the source gives them in different places.

Tests used:
Type in all cases: biochemical
recombinant PRL-3 = biological target: T1, recombinant PRL-3 (Homo sapiens, UniProt O75365); assay: In vitro phosphatase assay (DiFMUP hydrolysis), PRL-3; also: test concentration or dose not given here
T1 construct: 6xHis (N, cleaved yes); made in house; host or cells: E. coli One Shot BL21 Star
T1 sequence (O75365 whole entry): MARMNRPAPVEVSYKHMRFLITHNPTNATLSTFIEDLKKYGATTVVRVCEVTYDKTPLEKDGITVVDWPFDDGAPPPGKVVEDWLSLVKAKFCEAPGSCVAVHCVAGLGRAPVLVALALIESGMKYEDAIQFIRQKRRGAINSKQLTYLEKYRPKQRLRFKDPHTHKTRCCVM

recombinant PRL-2 = biological target: T2, recombinant PRL-2 (Homo sapiens, UniProt Q12974); assay: In vitro phosphatase assay (DiFMUP hydrolysis), PRL-2;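 also: PRL-2 activity read as DiFMUP hydrolysis after 20 min at room temperature with drug, enzyme first pre-reduced at 4 °C for 20 min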
T2 construct: 6xHis (N, cleaved yes); made in house; host or cells: E. coli One Shot BL21 Star
T2 sequence (Q12974 1-167): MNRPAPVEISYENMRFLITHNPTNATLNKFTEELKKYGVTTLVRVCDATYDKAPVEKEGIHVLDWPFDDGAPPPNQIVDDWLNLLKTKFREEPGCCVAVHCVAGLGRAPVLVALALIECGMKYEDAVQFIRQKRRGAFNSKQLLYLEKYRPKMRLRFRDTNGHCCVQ

recombinant PRL-1 = biological target: T3, recombinant PRL-1 (Homo sapiens, UniProt Q93096); assay: In vitro phosphatase assay (DiFMUP hydrolysis), PRL-1; also: test concentration or dose not given here
T3 construct: 6xHis (N, cleaved yes); made in house; host or cells: E. coli One Shot BL21 Star
T3 sequence (Q93096 1-173): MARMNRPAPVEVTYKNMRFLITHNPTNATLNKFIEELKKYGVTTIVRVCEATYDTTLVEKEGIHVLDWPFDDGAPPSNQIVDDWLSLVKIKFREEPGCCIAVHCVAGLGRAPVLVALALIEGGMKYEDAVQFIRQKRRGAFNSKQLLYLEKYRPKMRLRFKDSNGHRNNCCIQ

[1] = FDA-approved drug screen, compared to DMSO
[2] = FDA-approved drug screen, activity compared to DMSO

Row | Compound | % Phosphatase Activity (compared to DMSO) PRL-3 (recombinant PRL-3; [1]) [%] | % Phosphatase Activity (compared to DMSO) PRL-2 (recombinant PRL-2; [1]) [%] | % Phosphatase Activity (compared to DMSO) PRL-1 (recombinant PRL-1; [1]) [%] | further results
1 | CC[C@H](NC(=O)[C@H](C)NC)C(=O)N1C[C@@H](O)C[C@H]1Cc1c(-c2[nH]c3cc(F)ccc3c2C[C@@H]2C[C@H](O)CN2C(=O)[C@H](CC)NC(=O)[C@H](C)NC)[nH]c2cc(F)ccc12 [Birinapant] | 138 | 129 | 138 | 
2 | C[C@@H]1CC[C@H]2[C@@H](C)C(=O)O[C@@H]3O[C@@]4(C)CC[C@@H]1[C@]32OO4 [Artemisinin] | 80 | 90 | 100 | 
3 | Cn1cc(C2=C(c3cn(C4CCN(Cc5ccccn5)CC4)c4ccccc34)C(=O)NC2=O)c2ccccc21 [Enzastaurin (LY317615)] | 82 | 76 | 82 | 
4 | Cc1cc(=O)n(-c2ccccc2)n1C [Antipyrine] | 87 | 107 | 98 | 
5 | C[C@H](CS)C(=O)N1CCC[C@H]1C(=O)O [Captopril] | 82 | 99 | 90 | 
6 | NC(N)=Nc1nc(CSCCC(N)=NS(N)(=O)=O)cs1 [Famotidine] |  |  |  | % Phosphatase Activity (compared to DMSO) PRL-3 (recombinant PRL-3): 86%; % Phosphatase Activity (compared to DMSO) PRL-2 (recombinant PRL-2): 115%; % Phosphatase Activity (compared to DMSO) PRL-1 (recombinant PRL-1): 110%
7 | c1ccc(CN(CC2=NCCN2)c2ccccc2)cc1 [Antazoline HCl] | 76 | 104 | 91 | 
8 | CCC(=O)OCC(=O)[C@@]1(OC(=O)CC)[C@@H](C)C[C@H]2[C@@H]3CCC4=CC(=O)C=C[C@]4(C)[C@@]3(F)[C@@H](O)C[C@@]21C [Betamethasone Dipropionate] | 84 | 83 | 92 | 
9 | OC[C@@H](O)[C@@H](O)[C@H](O)[C@H](O)CO [D-Mannitol] | 104 | 101 | 93 | 
10 | CNCC(=O)c1ccc(O)c(O)c1.Cl [Adrenalone HCl] | 72 | 91 | 91 | 
11 | CNC(=O)[C@H](Cc1c[nH]c2ccccc12)NC(=O)[C@@H](CC(=O)NO)CC(C)C [Ilomastat (GM6001, Galardin)] | 91 | 80 | 94 | 
12 | CCN(C)C(=O)Oc1cccc([C@H](C)N(C)C)c1 [Rivastigmine] | 92 | 94 | 98 | 
13 | Clc1ccc2nsnc2c1NC1=NCCN1 [Tizanidine HCl] |  |  |  | % Phosphatase Activity (compared to DMSO) PRL-3 (recombinant PRL-3): 76%; % Phosphatase Activity (compared to DMSO) PRL-2 (recombinant PRL-2): 92%; % Phosphatase Activity (compared to DMSO) PRL-1 (recombinant PRL-1): 93%
14 | CC1(C)O[C@@H]2C[C@H]3[C@@H]4C[C@H](F)C5=CC(=O)C=C[C@]5(C)[C@@]4(F)[C@@H](O)C[C@]3(C)[C@]2(C(=O)CO)O1 [Fluocinolone Acetonide] | 82 | 111 | 110 | 
15 | NC(=O)Cc1cccc(C(=O)c2ccccc2)c1N [Nepafenac] | 72 | 93 | 96 | 
16 | CC[C@]1(O)C[C@@H]2CN(CCc3c([nH]c4ccccc34)[C@@](C(=O)OC)(c3cc4c(cc3OC)N(C)[C@H]3[C@@](O)(C(=O)OC)[C@H](OC(C)=O)[C@]5(CC)C=CCN6CC[C@]43[C@@H]65)C2)C1 [Vinblastine sulfate] |  |  |  | % Phosphatase Activity (compared to DMSO) PRL-3 (recombinant PRL-3; [2]): 91%; % Phosphatase Activity (compared to DMSO) PRL-2 (recombinant PRL-2; [2]): 95%; % Phosphatase Activity (compared to DMSO) PRL-1 (recombinant PRL-1; [2]): 92%
17 | Oc1ccc(Cl)c2cccnc12 [Cloxiquine] | 90 | 100 | 108 | 
18 | Eptifibatide Acetate | 91 | 82 | 88 | 
19 | NC[C@@H]1O[C@H](O[C@H]2[C@@H](O)[C@H](O[C@@H]3[C@@H](O)[C@H](N)C[C@H](N)[C@H]3O[C@H]3O[C@H](CO)[C@@H](O)[C@H](O)[C@H]3N)O[C@@H]2CO)[C@H](N)[C@@H](O)[C@@H]1O [Paromomycin Sulfate] | 112 | 110 | 93 | 

Row | Compound | % Phosphatase Activity (compared to DMSO) PRL-3 (recombinant PRL-3; [1]) [%] | % Phosphatase Activity (compared to DMSO) PRL-2 (recombinant PRL-2; [1]) [%] | % Phosphatase Activity (compared to DMSO) PRL-1 (recombinant PRL-1; [1]) [%] | further results
20 | CN(N=O)C(=O)N[C@H]1C(O)O[C@H](CO)[C@@H](O)[C@@H]1O (mixture of isomers) [Streptozotocin (STZ)] |  |  |  | % Phosphatase Activity (compared to DMSO) PRL-3 (recombinant PRL-3; [2]): 78%; % Phosphatase Activity (compared to DMSO) PRL-2 (recombinant PRL-2; [2]): 88%; % Phosphatase Activity (compared to DMSO) PRL-1 (recombinant PRL-1; [2]): 96%
21 | C[C@H]1O[C@@H](O[C@H]2[C@@H](O)C[C@H](O[C@H]3[C@@H](O)C[C@H](O[C@H]4CC[C@@]5(C)[C@H](CC[C@@H]6[C@@H]5C[C@@H](O)[C@]5(C)[C@@H](C7=CC(=O)OC7)CC[C@]65O)C4)O[C@@H]3C)O[C@@H]2C)C[C@H](O)[C@@H]1O [Digoxin] | 76 | 95 | 102 | 
22 | CO[C@H]1O[C@@H]2O[C@@]3(C)CC[C@H]4[C@H](C)CC[C@@H]([C@H]1C)[C@@]24OO3 [Artemether] | 85 | 96 | 87 | 
23 | Cc1cccc(C(C)c2cnc[nH]2)c1C (stereo not drawn) [Medetomidine HCl] |  |  |  | % Phosphatase Activity (compared to DMSO) PRL-3 (recombinant PRL-3): 99%; % Phosphatase Activity (compared to DMSO) PRL-2 (recombinant PRL-2): 113%; % Phosphatase Activity (compared to DMSO) PRL-1 (recombinant PRL-1): 109%
24 | Cn1c(=O)c2c(ncn2CC(O)CO)n(C)c1=O (stereo not drawn) [Dyphylline] | 75 | 103 | 100 | 
25 | O=C(Nc1nc2cccc(-c3ccc(CN4CCS(=O)(=O)CC4)cc3)n2n1)C1CC1 [Filgotinib (GLPG0634)] | 92 | 81 | 102 | 
26 | C=CC(=O)Nc1cccc(Oc2nc(Nc3ccc(N4CCN(C)CC4)cc3)nc3ccsc23)c1 [Olmutinib (HM61713, BI 1482694)] | 94 | 87 | 90 | 
27 | Vitamin E |  |  |  | % Phosphatase Activity (compared to DMSO) PRL-3 (recombinant PRL-3; [2]): 90%; % Phosphatase Activity (compared to DMSO) PRL-2 (recombinant PRL-2; [2]): 90%; % Phosphatase Activity (compared to DMSO) PRL-1 (recombinant PRL-1; [2]): 108%
28 | Cl.Nc1c(Br)cc(Br)cc1CN[C@H]1CC[C@H](O)CC1 [Ambroxol HCl] | 98 | 117 | 105 | 
29 | Nc1cccc2c1C(=O)N(C1CCC(=O)NC1=O)C2=O (stereo not drawn) [Pomalidomide] | 204 | 248 | 264 | 
30 | NC(=O)c1cccnc1 [Nicotinamide (Vitamin B3)] | 98 | 95 | 88 | 
31 | O=C([O-])c1ccccc1O.[Na+] [Sodium salicylate] |  |  |  | % Phosphatase Activity (compared to DMSO) PRL-3 (recombinant PRL-3): 95%; % Phosphatase Activity (compared to DMSO) PRL-2 (recombinant PRL-2): 103%; % Phosphatase Activity (compared to DMSO) PRL-1 (recombinant PRL-1): 130%
32 | CC(C(=O)O)c1ccc2c(c1)CC(=O)c1ccccc1S2 (stereo not drawn) [Zaltoprofen] |  |  |  | % Phosphatase Activity (compared to DMSO) PRL-3 (recombinant PRL-3; [2]): 86%; % Phosphatase Activity (compared to DMSO) PRL-2 (recombinant PRL-2; [2]): 113%; % Phosphatase Activity (compared to DMSO) PRL-1 (recombinant PRL-1; [2]): 109%
33 | Nc1nc(F)nc2c1ncn2[C@@H]1O[C@H](CO)[C@@H](O)[C@@H]1O [Fludarabine] | 94 | 119 | 110 | 
34 | COc1ccccc1Oc1c(NS(=O)(=O)c2ccc(C(C)(C)C)cc2)nc(-c2ncccn2)nc1OCCO [Bosentan] | 71 | 84 | 83 | 
35 | C[C@@H]1CC(=O)NN=C1c1ccc(NN=C(C#N)C#N)cc1 [Levosimendan] | 69 | 58 | 76 | 
36 | Nc1[nH]c(=O)ncc1F [Flucytosine] | 74 | 92 | 99 | 
37 | C[C@H](NC(=O)C(=O)Nc1ccccc1C(C)(C)C)C(=O)N[C@@H](CC(=O)O)C(=O)COc1c(F)c(F)cc(F)c1F [Emricasan] | 95 | 72 | 95 | 
38 | CCN(CC)C(=O)C1(c2ccccc2)CC1CN.Cl (stereo not drawn) [Milnacipran HCl] | 80 | 107 | 114 | 
